Laboratory results reported in patent publication US12391646B2, “Using adiponectin receptor agonists to treat inflammation and bone diseases in diabetes” (Trustees of Tufts College, priority 2020, dated 2025).

How the values were obtained:
[1] = tested on: LPS-stimulated RAW 264.7 macrophages; test: qPCR of cytokine mRNA in LPS-stimulated RAW 264.7 macrophages; format: cell-based; conditions: for expression of proinflammatory cytokines such as IL-6 and IL-1B: LPS-induced macrophages
Protocol: FIG. 1 Characterization of anti-inflammatory properties of APR-like compounds. (a) Raw264.7 cells were pretreated with APR (20 μM) or new compounds 1 to 10 (5 μM) for 24 h followed by incubation with LPS (100 ng/mL) for an additional 6 h. IL-6 and IL-1β mRNA expression levels were evaluated by qPCR and normalized with GAPDH mRNA level. (b) Raw264.7 cells were pretreated with different doses of AdipoAI for 24 h followed by incubation with LPS (100 ng/mL) for additional 6 h to evaluate dose-dependency of AdipoAI in inhibiting IL-6 and IL-1β mRNA expression levels by qRT-PCR and normalized with GAPDH mRNA level. (c) Evaluation of cytotoxicity of APR, AdipoAI and compound 5 by CCK8 assay in Raw264.7 cells treated for 24 hours. (d) BMMs were pretreated with APR (20 μM), AdipoAI (5 μM) or compound 5 (5 μM) for 24 h followed by incubation with LPS (100 ng/ml) for additional 6 h for the measurement of IL-6 and IL-1β mRNA expression levels by qRT-PCR and normalized with GAPDH mRNA level. Data were expressed as the mean±SEM at five biological independent experiments. One-way ANOVA test for multiple-group comparisons, *P<0.05, significant differences between each indicated group.
RAW 264.7 macrophage cell line was purchased from ATCC (Manassas, VA, USA) and maintained in DMEM (Gibco, Life Technologies, Carlsbad, CA, USA) supplemented with 10% (v.v-1) FBS (Gibco, Life Technologies) and 1% (v.v-1) penicillin/streptomycin (Gibco, Life Technologies). The cells were routinely cultured in an incubator at 37° C. in a humidified atmosphere of 5% CO2.
Total RNA of cells was extracted using Quick-RNA Miniprep Kit (ZYMO Research, Irvine, CA, USA) and total RNA from mouse tissues was prepared with TriZol reagent (Life Technologies) according to the manufacturer's instructions followed by qRT-PCR assays as described previously (L. Zhang et al., 2014). 1 μg of total RNA was used for reverse transcription using the M-MLV Reverse Transcriptase (Thermo Scientific, Waltham, MA, USA) according to the manufacturer's protocol using PowerUp SYBR Green Master Mix (Thermo Scientific) on a Bio-Rad iQ5 thermal cycler (Bio-Rad Laboratories, Hercules, CA, USA). Differences in expression were evaluated by the comparative cycle threshold method using GAPDH or β-actin as a control. The primer sequences used for the qRT-PCR experiments are listed in supplemental Table 1.
Macrophages were seeded at a density of 5×10^5 cells/well in 12-well plates. After overnight incubation, the cells were transfected for 24 h with siRNAs targeting specific genes or scrambled control siRNAs using HiPerFect Transfection Reagent (Qiagen, Hilden, Germany) according to the manufacturer's guidelines. Gene silencing efficiency was monitored by qPCR or Western blot analysis. The siRNA duplexes used in this study were chemically synthesized by Thermo Scientific.

DIO mice = test: Systemic inflammation in DIO mice, oral gavage 14 days; format: in vivo; conditions: AdipoAI 25 mg/kg; for mRNA expression of IL-6 and IL-1β in WAT, spleen, bone marrow / serum levels of IL-6 and IL-1β: oral gavage 14 days, APR 50 mg/kg
Protocol: FIG. 3 AdipoAI decreases inflammation in DIO mice (n=6). DIO mice were orally gavaged with APR (50 mg/kg) or AdipoAI (25 mg/kg) for 14 days, and control animals (WT or DIO mice) were administered with equivalent volumes of DMSO. mRNA expression levels of pro-inflammatory cytokines in (a) WAT, (b) spleen and (c) bone marrow were measured by qRT-PCR and normalized to the level of β-actin mRNA. Data are expressed as mean±SEM. (d) Serum levels of IL-6 and IL-1β were measured by ELISA. Data are expressed as mean #SEM. Representative images of H&E (e) and IHC of F4/80 staining (f) of spleen tissue in DIO mice (n=6). Red arrow indicates multinucleated giant cells (megakaryocytes). One-way ANOVA test for multiple-group comparisons, * vs. WT-vehicle group, # vs. DIO-vehicle group. */#P<0.05, significant differences between each indicated group. ns, not significant.
The Ethics Committee on the Use and Care of Animals at Tufts University approved the study protocol (Boston, MA, USA). The animals received humane care according to the criteria outlined in the Guide for the Care and Use of Laboratory Animals prepared by the National Academy of Sciences and published by the National Institutes of Health. All experiments involving animals or animal tissue are reported in compliance with the guidelines of ARRIVE and BJP (Kilkenny et al., 2010; McGrath and Lilley, 2015). Experimental protocols and design adhere to BJP guidelines (Curtis et al., 2015). Wild-type (WT, C57BL/6J, Jax #000664), DIO (Jax #380050), and APN KO (Jax #008195) mice were purchased from the Jackson Laboratory. The DIO mice were fed with a high-fat diet (containing 60% kcal from fat; Jackson Laboratory) at 6 weeks of age and later. The WT mice were fed with ordinary diet as normal chow (NC)-fed mice, and APN KO mice were maintained and fed with an NC diet as previously described (Tu et al., 2011). For the LPS-induced endotoxemia model, male C57BL/6 mice aged 8 weeks received oral gavage with APR (50 mg/kg body weight) or AdipoAI (25 mg/kg body weight) for 24 h before by LPS (20 mg/kg body weight) treatment which was administered intraperitoneally whereas control animals were treated with equivalent volumes of normal PBS. Mouse survival in each group was monitored and recorded up to 84 h. All mice were killed at 1 h for detection of activation of inflammatory genes, at 6 h for determination of inflammatory factors in serum, and at 24 h for histological evaluation. Animal data were excluded from experiments based on pre-established criteria of visible abnormal tissue structure during sample harvest or other health issues, including fighting wounds.

**Q.** For `O=C(COc1ccc(C(=O)c2ccccc2)cc1)NC1CCN(Cc2ccccc2)CC1` [AdipoRon, reference compound], which “expression of proinflammatory cytokines such as IL-6 and IL-1B” value [1] is on record?
**A.** The value was “inhibited expression of proinflammatory cytokines such as IL-6 and IL-1B”.

**Q.** And the “mRNA expression of IL-6 and IL-1β in WAT, spleen, bone marrow” value (DIO mice)?
**A.** The value was “inhibited the expression levels of IL-6 and IL-1β”.

**Q.** What about the “serum levels of IL-6 and IL-1β” value (DIO mice) of the same compound?
**A.** Its value is “inhibited the expression levels of IL-6 and IL-1β”.

**Q.** For `COc1ccc(CN2CCC(NC(=O)COc3ccc(C(=O)c4ccc(Cl)cc4)cc3)CC2)cc1` [Compound 3], which “expression of proinflammatory cytokines such as IL-6 and IL-1B” value [1] is on record?
**A.** The value was “inhibited expression of proinflammatory cytokines such as IL-6 and IL-1B”.

**Q.** What about the “dependence of inhibition of proinflammatory cytokine mRNA on AdipoRs and APPLs (siRNA)” value ([1]; Raw264.7 cells transfected with siRNA) of the same compound?
**A.** The value was “prevented by AdipoR1 and APPL1 suppression, but not AdipoR2 or APPL2”.

**Q.** And the “inhibition of IL-6 and IL1-β mRNA expression” value ([1]; compounds at 5 μM vs APR at 20 μM, 24 h pretreatment, then LPS 100 ng/mL 6 h)?
**A.** Its value is “stronger inhibitory effects than APR”.

**Q.** What about the “anti-inflammatory efficacy relative to APR” value ([1]; in macrophages, estimated) of the same compound?
**A.** Its value is “about 8 times”.

**Q.** What about the “LPS-stimulated IL-6 and IL-1β mRNA expression, dose-dependency” value ([1]; increasing concentrations, 24 h, then LPS 100 ng/mL 6 h) of the same compound?
**A.** The value was “decreased LPS-stimulated IL-6 and IL-1β mRNA expression in a dose-dependent fashion”.

**Q.** What about the “megakaryocytes and macrophages in spleen (H&E, IHC F4/80)” value (DIO mice; 14 days) of the same compound?
**A.** The value was “decreased quantity of megakaryocytes and macrophages”.

**Q.** What about the “mRNA expression of IL-6 and IL-1β in WAT, spleen, bone marrow” value (DIO mice) of the same compound?
**A.** Its value is “inhibited mRNA expression of IL-6 (Il6) and IL-1β (Il1β)”.

**Q.** And the “serum levels of IL-6 and IL-1β” value (DIO mice)?
**A.** Its value is “reduced IL-6 and IL-1β levels in the serum”.
